According to ChEMBL document CHEMBL1201862, “PubChem BioAssay data set” (2004):
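Interpolation was linear, between the two tested concentrations surrounding the appropriate level; five concentrations were tested over 48 hours in 96-well plates. Here, GI50 denotes the concentration required for 50% inhibition of growth.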 Calls of active or inactive are those of the source. Rule as the data show it: active = GI50 up to about 1.1 µM and inactive = higher.

Key:
Assay in all cases: NCI anticancer screen, dose series, 48 h
[1] = tested on: A549
[2] = tested on: ACHN
[3] = tested on: COLO 205
[4] = tested on: HCC 2998
[5] = tested on: HL-60
[6] = tested on: HOP-62
[7] = tested on: HT-29
[8] = tested on: IGROV-1
[9] = tested on: NCI-H522
[10] = tested on: OVCAR-3
[11] = tested on: OVCAR-8
[12] = tested on: SK-MEL-5
[13] = tested on: SNB-19
[14] = tested on: SNB-75
[15] = tested on: SW-620
[16] = tested on: TK-10
[17] = tested on: UACC-257
[18] = tested on: K562

Row | SMILES | GI50 [1] | GI50 [2] | GI50 [3] | GI50 [4] | GI50 [5] | GI50 [6] | GI50 [7] | GI50 [8] | GI50 [9] | GI50 [10] | GI50 [11] | GI50 [12] | GI50 [13] | GI50 [14] | GI50 [15] | GI50 [16] | GI50 [17] | GI50 [18]
1 | C/C(=N/NC(N)=S)c1ccc2ccccc2c1 | 24.4 µM (inactive) | 55.6 µM (inactive) | 21.4 µM (inactive) | 16 µM (inactive) | 15 µM (inactive) | 46.6 µM (inactive) | 19.7 µM (inactive) | 32.7 µM (inactive) | 17.6 µM (inactive) | 30.4 µM (inactive) | 32.9 µM (inactive) | 14.2 µM (inactive) | 83.2 µM (inactive) | 25.9 µM (inactive) | 33.3 µM (inactive) | 74.6 µM (inactive) | 41.9 µM (inactive) | 
2 | C=CCCCCCCCCC(=O)O [UNDECYLENIC ACID] | 103 µM (inactive) |  | 41.3 µM (inactive) | 108 µM (inactive) | 101 µM (inactive) | 105 µM (inactive) | 118 µM (inactive) | 113 µM (inactive) | 105 µM (inactive) | 67 µM (inactive) | 121 µM (inactive) | 93.8 µM (inactive) | 150 µM (inactive) | 168 µM (inactive) | 125 µM (inactive) |  | 179 µM (inactive) | 152 µM (inactive)
3 | COc1ccc(-c2cc3[nH]nc(N)c3c(=O)o2)cc1 | > 100 µM (inactive) | > 100 µM (inactive) | > 100 µM (inactive) | > 100 µM (inactive) | 90.4 µM (inactive) |  | > 100 µM (inactive) | > 100 µM (inactive) |  |  | > 100 µM (inactive) | > 100 µM (inactive) | > 100 µM (inactive) | 97.3 µM (inactive) | > 100 µM (inactive) | > 100 µM (inactive) | > 100 µM (inactive) | > 100 µM (inactive)
4 | Cc1ccc(NC(=O)CSc2nnc(Cc3ccccc3)o2)c(C)c1 | > 100 µM (inactive) | > 100 µM (inactive) | > 100 µM (inactive) |  | > 100 µM (inactive) | > 100 µM (inactive) | > 100 µM (inactive) |  | > 100 µM (inactive) |  | > 100 µM (inactive) | > 100 µM (inactive) | > 100 µM (inactive) | > 100 µM (inactive) | > 100 µM (inactive) | > 100 µM (inactive) | > 100 µM (inactive) | > 100 µM (inactive)
5 | Cc1cc(Cl)ccc1NC(=O)CC1SC(NC(=O)c2ccccc2Cl)=NC1=O (stereo not drawn) | 81.7 µM (inactive) | 16.9 µM (inactive) |  | 59.4 µM (inactive) | 2.19 µM (inactive) |  | 21.5 µM (inactive) | 38.2 µM (inactive) | 15.1 µM (inactive) | 17.5 µM (inactive) | > 100 µM (inactive) | 30.8 µM (inactive) | > 100 µM (inactive) | 19.2 µM (inactive) | 18 µM (inactive) | > 10 µM (inactive) | 16.3 µM (inactive) | 17 µM (inactive)
6 | COc1cccc(NC(=O)/C(CC(=O)CC(c2ccccc2)c2c(O)c3ccccc3oc2=O)=N\NC(C)(C)C)c1OC (stereo not drawn) | 87.7 µM (inactive) | 34.4 µM (inactive) | > 100 µM (inactive) | 40.9 µM (inactive) | 22.5 µM (inactive) | 86.1 µM (inactive) |  | 64.3 µM (inactive) |  | 78.9 µM (inactive) | > 100 µM (inactive) | > 100 µM (inactive) | > 100 µM (inactive) | 27.7 µM (inactive) | > 100 µM (inactive) | > 100 µM (inactive) | > 100 µM (inactive) | 44.9 µM (inactive)
7 | Oc1ccc(C2Oc3cc(O)cc4c3C2c2cc(O)cc3c2C(c2cc(O)cc5c2C4C(c2ccc(O)cc2)O5)C(c2ccc(O)cc2)O3)cc1 (stereo not drawn) | > 25 µM (inactive) | > 25 µM (inactive) | > 25 µM (inactive) | 8.15 µM (inactive) | 0.834 µM (active) | 16.5 µM (inactive) |  |  | 6.55 µM (inactive) | 7 µM (inactive) | 6.61 µM (inactive) | 10.9 µM (inactive) | 4.78 µM (inactive) | 3.19 µM (inactive) | 7.73 µM (inactive) | > 25 µM (inactive) | 10.5 µM (inactive) | 7 µM (inactive)
8 | Cc1ccc(NCCO)cc1 | > 100 µM (inactive) | > 100 µM (inactive) | > 100 µM (inactive) |  | > 100 µM (inactive) | > 100 µM (inactive) | > 100 µM (inactive) | > 100 µM (inactive) | > 100 µM (inactive) | > 100 µM (inactive) | > 100 µM (inactive) | > 100 µM (inactive) | > 100 µM (inactive) | > 100 µM (inactive) | > 100 µM (inactive) | > 100 µM (inactive) | > 100 µM (inactive) | 55 µM (inactive)
